Laboratory results reported in patent US9476099B2 (TRUSTEES OF DARTMOUTH COLLEGE, priority 2012, dated 2016).

Test system: NT2/D1-R1 control and DNMT3B knockdown cells
Test: Genome-wide expression analysis with PAM clusters, control and DNMT3B knockdown cells (Tables 8-14)
Details: 10 nM, 3 days; NT2/D1-R1

## Nc1ncn([C@H]2C[C@H](O)[C@@H](CO)O2)c(=O)n1 [decitabine, 5-aza-deoxycytidine]
  Cluster 1: genes down-regulated by low dose decitabine in control cells but not in DNMT3B knockdown cells: 129 genes
  Cluster 2: genes induced by decitabine only in control cells and not in sh-DNMT3B cells: 337 genes
